# Counter-ions that a name gives are not always drawn. Like-named read-outs stand apart in the source and are kept apart here.
# Tests used:
# [1] = Osmolality of amantadine hydrochloride solution in sterile water for injection; format: physicochemical
# Source text: Examples of tonicity agents that can be used in the compositions of the present invention include, but are not limited to, sodium chloride, mannitol, dextrose, potassium chloride, sodium chloride and mixtures thereof. The tonicity agents may be present in an amount so as to provide osmolality of from about 250 mOsm/kg to about 350 mOsm/kg, particularly from 280 mOsm/kg to 320 mOsm/kg.
# [2] = continuous subcutaneous administration, Parkinson's disease patients; cited from earlier work
# [3] = test system: persistent vegetative state; conditions: single patient; 100 mg/day intravenously increased to 300 mg/day, then enteral; cited from earlier work
# fluid percussion injury = conditions: chronic amantadine-pumping infusion, cited from earlier work
# [4] = postmortem brain tissue of 21 patients previously treated with amantadine sulfate; cited from earlier work
# [5] = Pharmacokinetic study in 10 healthy subjects: intravenous infusion vs oral capsules; format: in vivo, human; conditions: for Tmax / Cmax / half-life: fasted healthy subjects
compound,measurement,setting,value
NC12CC3CC(CC(C3)C1)C2 [amantadine hydrochloride],Osmolality,[1]; 10 mg/ml solution in sterile water for injection,97 mOsm/kg
same,Osmolality,[1]; 20 mg/ml solution in sterile water for injection,192 mOsm/kg
same,Osmolality,[1]; 30 mg/ml solution in sterile water for injection,283 mOsm/kg
same,Osmolality,[1]; 40 mg/ml solution in sterile water for injection,369 mOsm/kg
same,Osmolality,[1]; 50 mg/ml solution in sterile water for injection,509 mOsm/kg
same,Osmolality,[1]; 75 mg/ml solution in sterile water for injection,671 mOsm/kg
CN1CCc2cccc3c2[C@H]1Cc1ccc(O)c(O)c1-3 [apomorphine],"eosinophilia and orthostatic hypotension, share of PD patients",[2],less than 5%
"NC12CC3CC(CC(C3)C1)C2 [amantadine, 1-amantanamine]",clinical outcome in persistent vegetative state,[3],"stunning awakening of the patient, fully orientated within days"
same,dopamine-release deficits,fluid percussion injury; rats after fluid percussion injury,reversed
same,behavioral impairment after fluid percussion injuries,fluid percussion injury; rats,ameliorated
same,elimination half-life from brain tissue,[4],much longer than from blood
same,"Peak and total plasma exposures following the infusion, lower than reference oral dose",[5]; 50 mg intravenous infusion vs 200 mg oral dose,approximately 5 fold
same,Tmax,"[5]; human, plasma, iv, 50 mg, Treatment A: single 50 mg dose, intravenous infusion over 180 minutes, plasma, read-out: mean Tmax",4.1 h
same,Tmax,"[5]; human, plasma, iv, 50 mg, Treatment A: single 50 mg dose, intravenous infusion over 180 minutes, plasma, read-out: median Tmax",4 h
same,Tmax,"[5]; human, plasma, po, 200 mg, Treatment B: single 200 mg oral dose as 2×100 mg capsules, plasma, read-out: mean Tmax",3.6 h
same,Tmax,"[5]; human, plasma, po, 200 mg, Treatment B: single 200 mg oral dose as 2×100 mg capsules, plasma, read-out: median Tmax",2.8 h
same,bioavailability,"[5]; human, plasma, 200 mg oral, from LSGM A/B ratio of CLIV to CLIV/F, read-out: bioavailability of the oral capsule",122%
same,Cmax,"[5]; human, Treatment A: single 50 mg dose, intravenous infusion over 180 minutes, plasma",142 ng/mL
same,half-life,"[5]; human, Treatment A: single 50 mg dose, intravenous infusion over 180 minutes, plasma, read-out: mean apparent first-order elimination half-life (T1/2) (converted)",14 h
same,Cmax,"[5]; human, Treatment B: single 200 mg oral dose as 2×100 mg capsules, plasma",643 ng/mL
same,half-life,"[5]; human, Treatment B: single 200 mg oral dose as 2×100 mg capsules, plasma, read-out: mean T1/2 (converted)",14.6 h
